In US20150087649A1, “TREATING DISORDERS ASSOCIATED WITH ABERRANT ADRENOCORTICAL CELL BEHAVIOR” (Atterocor, Inc., priority 2013, published 2015):
Where two headings read alike, the source gives them in different places.

Assays:
human ACAT1 = molecular target: T1, human ACAT1 (Homo sapiens, UniProt P35610, Q526R); test: Fluorescent cell-based assay measuring esterification of NBD-cholesterol in AC29 cells expressing huACAT1
T1 construct: expressed in transfected cells
T1 sequence (P35610 1-550 Q526R): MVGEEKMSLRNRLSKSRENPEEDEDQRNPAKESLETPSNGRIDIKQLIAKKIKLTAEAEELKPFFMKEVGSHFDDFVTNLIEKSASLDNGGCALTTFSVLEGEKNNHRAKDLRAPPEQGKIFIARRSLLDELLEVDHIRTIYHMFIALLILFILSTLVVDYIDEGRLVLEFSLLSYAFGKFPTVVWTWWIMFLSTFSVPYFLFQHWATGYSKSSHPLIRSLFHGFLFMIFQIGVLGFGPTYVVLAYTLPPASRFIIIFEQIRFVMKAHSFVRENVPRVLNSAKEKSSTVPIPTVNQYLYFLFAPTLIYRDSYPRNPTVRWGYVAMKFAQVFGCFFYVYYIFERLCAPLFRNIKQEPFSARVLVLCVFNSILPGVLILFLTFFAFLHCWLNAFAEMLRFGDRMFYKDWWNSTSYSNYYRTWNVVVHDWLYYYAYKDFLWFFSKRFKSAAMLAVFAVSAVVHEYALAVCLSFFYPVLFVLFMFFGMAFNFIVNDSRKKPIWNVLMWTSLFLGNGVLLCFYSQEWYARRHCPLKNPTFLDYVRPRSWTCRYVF
Description: In the methods described herein, the agent inhibits the ability of huACAT1 to catalyze the esterification of free cholesterol into cholesteryl ester. […] AC29 cells lack endogenous ACAT1 activity and are transfected to express human ACAT1. The assay uses 22-[N-(7-nitrobenz-2-oxa-1,3-diazol-4-yl)amino]-23,24-bisnor-5-cholen-3-ol (NBD-cholesterol), a fluorescent sterol analog in which the NBD moiety replaces the terminal segment of the alkyl tail of cholesterol. […] In a polar environment, NBD-cholesterol is weakly fluorescent. In a nonpolar environment, NBD-cholesterol is strongly fluorescent. The fluorescent property of NBD-cholesterol is used to measure ACAT activity, as cholesterol is a polar lipid and cholesteryl ester is nonpolar. Untransfected AC29 cells or AC29 cells expressing huACAT1 treated with a known ACAT inhibitor can be used to determine background fluorescence due to free-NBD-cholesterol.
(§1) Cells were maintained in monolayer at 37° C. in 5% CO2 in Ham's F-12 medium supplemented with 1% Eagle's vitamins, penicillin (100 units/ml), streptomycin (100 μg/ml), and 10% heat-inactivated fetal bovine serum, and cells were typically grown to 70-90% confluence for all experiments.
(§2) Human ACAT1 activity was assessed using a fluorescent cell-based assay as described in Lada et al. (supra). The assay uses 22-[N-(7-nitrobenz-2-oxa-1,3-diazol-4-yl)amino]-23,24-bisnor-5-cholen-3-ol (NBD-cholesterol), a fluorescent sterol analog in which the NBD moiety replaces the terminal segment of the alkyl tail of cholesterol. […] In a polar environment, NBD-cholesterol is weakly fluorescent. In a nonpolar environment, NBD-cholesterol strongly is strongly fluorescent. The fluorescent property of NBD-cholesterol is used to measure ACAT activity, as cholesterol is a polar lipid and cholesteryl ester is nonpolar. 3×10^5 cells per well were plated on Falcon 96-well culture plates and allowed to recover overnight. Assays were performed with cells that are at least 80% confluent. Media was aspirated and wells were pre-incubated with 100 μL of dilutions of control and test compounds from 1000× stock solutions in DMSO (or other neutral diluent e.g., methanol, ethanol, or water) for 20 minutes. Media was removed and replaced with 100 μL of medium containing the same dilution of compound or vehicle as in the pre-incubation and 1 μg/ml NBD-cholesterol and incubated for 6 hr at 37° C. (Lada et al., supra). […] Parental AC29 cells incubated with NBD-cholesterol or ACAT1-expressing cells incubated with NBD-cholesterol and the […] were used to determine background fluorescence attributable to free NBD-cholesterol. After incubation, medium is removed, and the cells were washed two times with cold balanced salt solution (BSS). […] Cholesteryl ester (CE) fluorescence was calculated by subtracting the background from the total fluorescence, and these values were normalized by cellular protein.

human ACAT2 = molecular target: T2, human ACAT2 (Homo sapiens, UniProt O75908); test: Fluorescent NBD-cholesterol esterification assay in AC29 stable transfectants, Table 2; format: cell-based
T2 sequence (O75908 1-522): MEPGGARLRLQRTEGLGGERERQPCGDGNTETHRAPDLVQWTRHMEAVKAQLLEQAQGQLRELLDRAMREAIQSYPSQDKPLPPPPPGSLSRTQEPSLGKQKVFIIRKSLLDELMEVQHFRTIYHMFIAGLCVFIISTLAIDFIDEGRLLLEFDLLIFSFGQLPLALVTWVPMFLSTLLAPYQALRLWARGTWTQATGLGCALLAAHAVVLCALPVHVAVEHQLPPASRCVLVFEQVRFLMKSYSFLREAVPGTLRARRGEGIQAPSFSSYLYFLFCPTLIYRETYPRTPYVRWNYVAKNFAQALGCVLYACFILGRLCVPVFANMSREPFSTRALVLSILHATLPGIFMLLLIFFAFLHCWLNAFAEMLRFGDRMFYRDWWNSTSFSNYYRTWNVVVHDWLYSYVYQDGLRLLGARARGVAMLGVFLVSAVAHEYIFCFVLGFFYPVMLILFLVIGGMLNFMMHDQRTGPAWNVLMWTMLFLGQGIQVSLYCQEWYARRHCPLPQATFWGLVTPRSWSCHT
Procedure: [The procedure below names another target; the source lists this target under the same test.] as §1, §2

H295R cells [1] = test: Caspase-3/7 activity (Apotox-Glo) in H295R cells with exogenous cholesterol; format: cell-based, human; settings: compound at its ACAT1 IC50 concentration, 45 ug/mL exogenous cholesterol, 5 hours
Procedure: Commercially-available assay kits may also be employed to measure Caspase 3/7 activity, including for example the Apotox-Glo Assay Kit (Promega). […] H295R cells are plated at 500,000 cells/well in a 12 well plate. After overnight incubation at 37° C., media is removed and replaced with media containing vehicle (DMSO) or one of the ACAT1 inhibitors at its ACAT1 IC50 concentration in the presence of 45 ug/mL exogenous cholesterol. After 5 hours of treatment, cells are harvested, washed and assayed for Caspase-3/7 activity using the Apotox-Glo Assay Kit (Promega).

H295R = test: Free and esterified cholesterol in H295R cells with exogenous cholesterol; format: cell-based, human; settings: compound at its ACAT1 IC50 concentration, 45 μg/ml cholesterol
Procedure: In this study, H295R were plated at 200,000 cells/well in a 24 well plate. After overnight incubation at 37° C., media was removed and replaced with treatment media (test compound at its ACAT1 IC50 concentrations containing 45 μg/ml cholesterol) or vehicle (DMSO). After treatment of cells for various lengths of time (minutes to hours), media was removed and cells are washed twice with cold PBS. 200 ul of hexane/isopropanol (3:2) was then added to each well, the plate was rocked at room temperature for 1 hour, and the supernatant was transferred to glass vials and allowed to air dry. Residual lipids were resuspended and total cholesterol and free cholesterol were measured using the Cholesterol Fluorometric Assay Kit (Cayman Chemical). Cholesterol ester was determined by subtracting free cholesterol from total cholesterol.

H295R cells [2] = test: XBP-1 splicing (unfolded protein response) in H295R cells with exogenous cholesterol; format: cell-based, human; settings: compound at its ACAT1 IC50 concentration, 45 ug/mL exogenous cholesterol, 5 hours
Procedure: Treatment of H295R cells by an agent can result in chronic disruption of cholesterol homeostasis that may lead to activation of the UPR and/or triggering of the programmed cell death response and the induction apoptotic markers.
H295R adrenocortical cells are plated at 500,000 cells/well in a 12-well culture plate as described in Example 8. […]. After 5 hours of treatment, RNA is extracted using the Qiagen RNEasy® Plus kit and 1 μg RNA is reverse transcribed using Applied Biosystems® High-Capacity cDNA Reverse Transcription Kit. XBP-1 splicing product is amplified by PCR using primer pairs that allow detection of the activated isoform (5′-[…]-3′ (SEQ ID NO:15) and 5′-[…]-3′ (SEQ ID NO:16)) under the following conditions: 1) 95° C. for 30 sec, 2) 95° C. for 15 sec; 3) 50° C. for 15 sec, 4) 68° C. for 30 sec. […] Amplification steps 2 through 4 are repeated for 30 cycles. PCR product is resolved on a 5% agarose gel. DTT treated cells serve as a positive control for XBP-1 splicing. An increase in the XBP-1 splice variant expression of greater than 20% is considered significant.

adrenocortical cells = settings: as reported in the literature; cited from earlier work
[3] = tested on: adrenocortical carcinoma (ACC); settings: cited from earlier work
[4] = Table 2, first IC50 column, AC29 cells expressing huACAT1, 1 μg/ml NBD-cholesterol, 6 hr, read-out: IC50 huACAT1
[5] = Table 2, second IC50 column (head repeats huACAT1), AC29 transfectants, NBD-cholesterol, read-out: IC50 huACAT1
[6] = Table 3, determined as described in Example 1, read-out: ACAT1 IC50

CCCCCCCCCCCCCOC(=O)C(C(=O)Nc1c(C(C)C)cccc1C(C)C)c1ccccc1 (centres unmarked) [Compound 2]
IC50 (human ACAT1; [4]): 20 nM
IC50 (human ACAT2; [5]): 21 nM

CCCCC[C@H]1C=C[C@@H](CCCCC)SC1[C@@H](C)Nc1c(SC)cc(C)nc1SC (some centres unmarked) [Compound 6]
IC50 (human ACAT1; [4]): 1.8 nM
IC50 (human ACAT2; [5]): 18 nM

CCCCCCCCCCCCn1nnc(C(C(=O)Nc2c(C(C)C)cccc2C(C)C)c2ccccc2)n1 (centres unmarked) [Compound 3, 2H-Tetrazole-5-acetamide, N-[2,6-bis(1-methylethyl)phenyl]-2-dodecyl-a-phenyl-]
IC50 (human ACAT1; [4]): 2000 nM
IC50 (human ACAT1; [6]): 11 nM
IC50 (human ACAT2; [5]): 510 nM
Caspase-3/7 activity compared to vehicle (H295R cells [1]): significant increases
free cholesterol compared to vehicle (H295R): increase in free cholesterol
splicing of XBP-1 compared to vehicle (H295R cells [2]): significant splicing of XBP-1
Adrenal activity (adrenocortical cells): Adrenal acting

Clc1ccc(C(c2ccccc2Cl)C(Cl)Cl)cc1 (centres unmarked) [mitotane]
delay of disease progression, average ([3]; ACC patients that derive a therapeutic benefit): five
share of patients with increased progression-free survival ([3]; ACC patients): one-quarter to one-third

Cc1ccc2oc(CN(Cc3ccccc3)C(=O)Nc3c(F)cc(F)cc3F)c(-c3ccc(Cl)cc3)c2c1 [Compound 5]
IC50 (human ACAT1; [4]): 6 nM
IC50 (human ACAT1; [6]): 10 nM
IC50 (human ACAT2; [5]): 80 nM
Caspase-3/7 activity compared to vehicle (H295R cells [1]): significant increases
free cholesterol compared to vehicle (H295R): increase in free cholesterol
splicing of XBP-1 compared to vehicle (H295R cells [2]): significant splicing of XBP-1
Adrenal activity (adrenocortical cells): Adrenal acting

CC(C)c1cccc(C(C)C)c1OC(=O)NS(=O)(=O)Oc1c(C(C)C)cccc1C(C)C [Compound 1]
IC50 (human ACAT1): 2400 nM
IC50 (human ACAT2): 440 nM

CCCCCCCCC(C)(C)C(=O)Nc1c(OC)cc(OC)cc1OC [Compound 7]
IC50 (human ACAT1; [4]): 540 nM
